The values that follow come from ChEMBL document CHEMBL5528054, “Novel Cocrystal Structures of Peptide Antagonists Bound to the Human Melanocortin Receptor 4 Unveil Unexplored Grounds for Structure-Based Drug Design” (J Med Chem, 2024).

The target of experiment [1] is T1, Melanocyte-stimulating hormone receptor (Homo sapiens, UniProt Q01726). Kind of experiment: Partial agonist activity at C-terminal HA-tagged human MC1-R stably expressed in HEK293 cells co-expressing GScAMP22P cAMP reporter assessed as inhibition of alpha-MSH induced cAMP production by cell based luminescence assay. Type of experiment: functional. On the technique in general: Cyclic AMP is a second messenger, typically raised through Gs and lowered through Gi signalling.
Target sequence in this assay (Q01726 whole entry): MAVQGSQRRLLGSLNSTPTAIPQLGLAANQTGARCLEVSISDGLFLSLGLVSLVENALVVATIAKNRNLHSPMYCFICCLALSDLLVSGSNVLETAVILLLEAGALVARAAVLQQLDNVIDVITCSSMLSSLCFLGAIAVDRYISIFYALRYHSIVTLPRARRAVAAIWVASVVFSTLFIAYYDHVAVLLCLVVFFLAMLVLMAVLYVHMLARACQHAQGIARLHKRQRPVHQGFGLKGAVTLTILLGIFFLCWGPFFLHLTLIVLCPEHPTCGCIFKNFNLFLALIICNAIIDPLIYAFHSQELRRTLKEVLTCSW

Experiment [2] deals with T1, Melanocyte-stimulating hormone receptor. Kind of experiment: Partial agonist activity at C-terminal HA-tagged human MC1-R stably expressed in HEK293 cells co-expressing GScAMP22P cAMP reporter assessed as inhibition of alpha-MSH induced cAMP production by cell based luminescence assay relative to control. The format is functional. Set-up: concentration or dose not given beside the values. The following applies: filed as partial agonist, concentration not given here.
Target sequence in this assay (Q01726 whole entry, looked up): as the sequence (Q01726 whole entry) above

For experiment [3], the system named is HEK293. Kind of experiment: Selectivity ratio of IC50 for C-terminal HA-tagged human MC4-R stably expressed in HEK293 cells co-expressing GScAMP22P cAMP reporter assessed as inhibition of alpha-MSH induced cAMP production to IC50 for C-terminal HA-tagged human MC1-R stably expressed in HEK293 cells co-expressing GScAMP22P cAMP reporter assessed as inhibition of alpha-MSH induced cAMP production. Type of experiment: cell-based.

Experiment [4] deals with HEK293. Kind of experiment: Selectivity ratio of IC50 for C-terminal HA-tagged human MC4-R stably expressed in HEK293 cells co-expressing GScAMP22P cAMP reporter assessed as inhibition of alpha-MSH induced cAMP production to IC50 for C-terminal HA-tagged human MC3-R stably expressed in HEK293 cells co-expressing GScAMP22P cAMP reporter assessed as inhibition of alpha-MSH induced cAMP production. Type of experiment: cell-based.

A further experiment has as its target Melanocortin receptor 3 (Homo sapiens, UniProt P41968). The experiment in a line: Antagonist activity at C-terminal HA-tagged human MC3-R stably expressed in HEK293 cells co-expressing GScAMP22P cAMP reporter assessed as inhibition of alpha-MSH induced cAMP production by cell based luminescence assay. The format is functional. The following applies: read-out: IC50.

Another experiment concerns the target Melanocortin receptor 4 (Homo sapiens, UniProt P32245). Kind of experiment: Antagonist activity at C-terminal HA-tagged human MC4-R stably expressed in HEK293 cells co-expressing GScAMP22P cAMP reporter assessed as inhibition of alpha-MSH induced cAMP production by cell based luminescence assay. As to conditions: hek293; read-out: IC50. Type of experiment: functional.

Chain of Melanocortin receptor 4 (P32245 whole entry): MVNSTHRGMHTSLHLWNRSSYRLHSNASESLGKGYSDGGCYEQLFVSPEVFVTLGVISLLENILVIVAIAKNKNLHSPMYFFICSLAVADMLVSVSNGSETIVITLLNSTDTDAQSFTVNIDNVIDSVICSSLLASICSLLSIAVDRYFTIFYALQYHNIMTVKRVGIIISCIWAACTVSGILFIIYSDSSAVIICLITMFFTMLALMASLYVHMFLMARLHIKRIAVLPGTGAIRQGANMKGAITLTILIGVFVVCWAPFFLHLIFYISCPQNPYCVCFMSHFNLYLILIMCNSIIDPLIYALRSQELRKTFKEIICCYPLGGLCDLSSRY
Chain of Melanocortin receptor 3 (P41968 whole entry): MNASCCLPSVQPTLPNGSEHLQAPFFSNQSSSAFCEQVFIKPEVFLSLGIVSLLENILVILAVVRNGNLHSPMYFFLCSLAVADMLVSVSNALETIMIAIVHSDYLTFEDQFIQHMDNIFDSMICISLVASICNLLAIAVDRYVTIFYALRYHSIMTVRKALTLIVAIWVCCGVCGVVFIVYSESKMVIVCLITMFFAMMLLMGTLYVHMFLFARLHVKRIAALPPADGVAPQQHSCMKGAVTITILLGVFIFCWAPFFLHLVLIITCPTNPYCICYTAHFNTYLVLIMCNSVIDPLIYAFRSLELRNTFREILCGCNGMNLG

As to `CCCC[C@H](NC(C)=O)C(=O)N[C@H]1CC(=O)NCCCC[C@@H](C(N)=O)NC(=O)CNC(=O)[C@H](Cc2c[nH]c3ccccc23)NC(=O)[C@H](CCCNC(=N)N)NC(=O)[C@@H](Cc2ccc3ccccc3c2)NC(=O)[C@@H]2C[C@H](NC(=O)CCNC(=N)N)CN2C1=O`, the IC50 in experiment [1] stood at 0.12 nM. In addition, the inhibition in experiment [2] was 78.6%.
On to `CCCC[C@H](NC(C)=O)C(=O)N[C@H]1CC(=O)NCCCC[C@@H](C(N)=O)NC(=O)[C@H](Cc2c[nH]c3ccccc23)NC(=O)[C@H](CCCNC(=N)N)NC(=O)[C@@H](Cc2ccc3ccccc3c2)NC(=O)[C@H](Cc2c[nH]cn2)NC1=O`, for which the inhibition in experiment [2] came to 76%.
Regarding `CC(=O)N[C@H](CCCNC(=N)N)C(=O)N[C@H]1CC(=O)NCCCC[C@@H](C(N)=O)NC(=O)[C@H](CCCNC(=N)N)NC(=O)[C@H](Cc2c[nH]c3ccccc23)NC(=O)[C@H](CCCNC(=N)N)NC(=O)[C@@H](Cc2ccc3ccccc3c2)NC(=O)[C@@H]2CCCN2C1=O`, the IC50 in experiment [1] turned out to be 1240 nM. For the same compound, the inhibition in experiment [2] stood at 94.6%.
For the compound `CCCCC(NC(C)=O)C(=O)N[C@H]1CC(=O)NCCCC[C@@H](C(N)=O)NC(=O)CNC(=O)[C@H](Cc2c[nH]c3ccccc23)NC(=O)[C@H](CCCNC(=N)N)NC(=O)[C@@H](Cc2ccc3ccccc3c2)NC(=O)[C@@H]2C[C@@H](n3cc(CCCNC(=N)N)nn3)CN2C1=O` (stereo partly specified), the Ratio IC50 in the experiment with HEK293 [3] stood at 0.1; in the experiment with HEK293 [4] it was 5.8. Besides, in experiment [2], the inhibition was 84.7%.
As to `CCCC[C@H](NC(C)=O)C(=O)N[C@H]1CC(=O)NCCCC[C@@H](C(N)=O)NC(=O)CNC(=O)[C@H](Cc2c[nH]c3ccccc23)NC(=O)[C@H](CCCNC(=N)N)NC(=O)[C@@H](Cc2ccc3ccccc3c2)NC(=O)[C@@H]2C[C@H](n3cc(CCNC(=N)N)nn3)CN2C1=O`, the IC50 in experiment [1] came out at 5.09 nM. In addition, the inhibition in experiment [2] came to 85.9%.
For `CCCC[C@H](NC(C)=O)C(=O)N[C@H]1CC(=O)NCCCC[C@@H](C(N)=O)NC(=O)[C@H](CCCCNC(=N)NCCC(=O)O)NC(=O)[C@H](Cc2c[nH]c3ccccc23)NC(=O)[C@H](CCCNC(=N)N)NC(=O)[C@@H](Cc2ccc3ccccc3c2)NC(=O)[C@@H]2CCCN2C1=O`, the IC50 in experiment [1] turned out to be 608 nM. In addition, the inhibition in experiment [2] was 83.2%.
On the same counts, the results for `CCCC[C@H](NC(C)=O)C(=O)N[C@H]1CC(=O)NCCCC[C@@H](C(N)=O)NC(=O)[C@H](Cc2ccc(NC(=N)N)cc2)NC(=O)[C@H](Cc2c[nH]c3ccccc23)NC(=O)[C@H](CCCNC(=N)N)NC(=O)[C@@H](Cc2ccc3ccccc3c2)NC(=O)[C@@H]2CCCN2C1=O` are 90 nM and 88.6%.
On the same counts, the results for `CCCC[C@H](NC(C)=O)C(=O)N[C@H]1CC(=O)NCCCC[C@@H](C(N)=O)NC(=O)[C@H](CCCCNC(=N)NCCC)NC(=O)[C@H](Cc2c[nH]c3ccccc23)NC(=O)[C@H](CCCNC(=N)N)NC(=O)[C@@H](Cc2ccc3ccccc3c2)NC(=O)[C@@H]2CCCN2C1=O` are 75 nM and 86.2%.
On the same counts, the results for `CCCC[C@H](NC(C)=O)C(=O)N[C@H]1CC(=O)NCCCC[C@@H](C(N)=O)NC(=O)[C@H](CCCCN)NC(=O)[C@H](Cc2c[nH]c3ccccc23)NC(=O)[C@H](CCCNC(=N)N)NC(=O)[C@@H](Cc2ccc3ccccc3c2)NC(=O)[C@@H]2CCCN2C1=O` are 158 nM and 81.6%.
`CCCC[C@H](NC(C)=O)C(=O)N[C@H]1CC(=O)NCCCC[C@@H](C(N)=O)NC(=O)CNC(=O)[C@H](Cc2c[nH]c3ccccc23)NC(=O)[C@H](CCCNC(=N)N)NC(=O)[C@@H](Cc2ccc3ccccc3c2)NC(=O)[C@@H]2C[C@H](NC(=O)c3ccccc3)CN2C1=O`: in experiment [1], the IC50 is 22.5 nM. Further, the inhibition in experiment [2] was found to be 90.9%.
On the same counts, the results for `CCCC[C@H](NC(C)=O)C(=O)N[C@H]1CC(=O)NCCCC[C@@H](C(N)=O)NC(=O)[C@H](CCCCNC(=N)N(CCC)CCC)NC(=O)[C@H](Cc2c[nH]c3ccccc23)NC(=O)[C@H](CCCNC(=N)N)NC(=O)[C@@H](Cc2ccc3ccccc3c2)NC(=O)[C@@H]2CCCN2C1=O` are 175 nM and 88.7%.
On to `CCCC[C@H](NC(C)=O)C(=O)N[C@H]1CC(=O)NCCCC[C@@H](C(N)=O)NC(=O)CNC(=O)[C@H](Cc2c[nH]c3ccccc23)NC(=O)[C@H](CCCNC(=N)N)NC(=O)[C@@H](Cc2ccc3ccccc3c2)NC(=O)[C@@H]2C[C@@H](n3cc(-c4ccccn4)nn3)CN2C1=O`, for which the values for the IC50 (on Melanocortin receptor 3 (hek293); on Melanocortin receptor 4; in experiment [1] (hek293)) were 6.35 nM, 4.01 nM and 213 nM, respectively.
As to `CCCC[C@H](NC(C)=O)C(=O)N[C@H]1CC(=O)NCCCC[C@@H](C(N)=O)NC(=O)[C@H](CCCCNC(=N)N)NC(=O)[C@H](Cc2c[nH]c3ccccc23)NC(=O)[C@H](CCCNC(=N)N)NC(=O)[C@@H](Cc2ccc3ccccc3c2)NC(=O)[C@@H]2CCCN2C1=O`, the IC50 in experiment [1] worked out at 816 nM. In experiment [2], the inhibition amounted to 90.6%.
On the same counts, the results for `CCCC[C@H](NC(C)=O)C(=O)N[C@H]1CC(=O)NCCCC[C@@H](C(N)=O)NC(=O)CNC(=O)[C@H](Cc2c[nH]c3ccccc23)NC(=O)[C@H](CCCNC(=N)N)NC(=O)[C@@H](Cc2ccc3ccccc3c2)NC(=O)[C@@H]2C[C@@H](NC(=O)CCNC(=N)N)CN2C1=O` are 0.08 nM and 76.4%.
For the compound `CCCC[C@H](NC(C)=O)C(=O)N[C@H]1CC(=O)NCCCC[C@@H](C(N)=O)NC(=O)CNC(=O)[C@H](Cc2c[nH]c3ccccc23)NC(=O)[C@H](CCCNC(=N)N)NC(=O)[C@@H](Cc2ccc3ccccc3c2)NC(=O)[C@@H]2C[C@@H](n3cc(CCCNC(=N)N)nn3)CN2C1=O`, the figures for the IC50 (at Melanocortin receptor 3 (hek293); at Melanocortin receptor 4; in experiment [1] (hek293)) were 18.8 nM, 3.26 nM and 0.49 nM, respectively.
As to `CCCC[C@H](NC(C)=O)C(=O)N[C@H]1CC(=O)NCCCC[C@@H](C(N)=O)NC(=O)[C@H](CCCCNC(=N)NCCN)NC(=O)[C@H](Cc2c[nH]c3ccccc23)NC(=O)[C@H](CCCNC(=N)N)NC(=O)[C@@H](Cc2ccc3ccccc3c2)NC(=O)[C@@H]2CCCN2C1=O`, the IC50 in experiment [1] is 15.4 nM. The inhibition in experiment [2] stood at 85.3%.
On the same counts, the results for `CCCC[C@H](NC(C)=O)C(=O)N[C@H]1CC(=O)NCCCC[C@@H](C(N)=O)NC(=O)[C@H](CCCN)NC(=O)[C@H](Cc2c[nH]c3ccccc23)NC(=O)[C@H](CCCNC(=N)N)NC(=O)[C@@H](Cc2ccc3ccccc3c2)NC(=O)[C@@H]2CCCN2C1=O` are 363 nM and 83.8%.
On the same counts, the results for `CCCC[C@H](NC(C)=O)C(=O)N[C@H]1CC(=O)NCCCC[C@@H](C(N)=O)NC(=O)CNC(=O)[C@H](Cc2c[nH]c3ccccc23)NC(=O)[C@H](CCCNC(=N)N)NC(=O)[C@@H](Cc2ccc3ccccc3c2)NC(=O)[C@@H]2C[C@H](NC(=O)Cc3ccccc3)CN2C1=O` are 13.5 nM and 90.1%.
Take `CCCC[C@H](NC(C)=O)C(=O)N[C@H]1CC(=O)NCCCC[C@@H](C(N)=O)NC(=O)[C@H](CCCNC(N)=O)NC(=O)[C@H](Cc2c[nH]c3ccccc23)NC(=O)[C@H](CCCNC(=N)N)NC(=O)[C@@H](Cc2ccc3ccccc3c2)NC(=O)[C@@H]2CCCN2C1=O`: the IC50 in experiment [1] turned out to be 575 nM. Moreover, the inhibition in experiment [2] is 91.2%.
On the same counts, the results for `CCCC[C@H](NC(C)=O)C(=O)N[C@H]1CC(=O)NCCCC[C@@H](C(N)=O)NC(=O)[C@H](CCCCNC(=N)NCc2ccccc2)NC(=O)[C@H](Cc2c[nH]c3ccccc23)NC(=O)[C@H](CCCNC(=N)N)NC(=O)[C@@H](Cc2ccc3ccccc3c2)NC(=O)[C@@H]2CCCN2C1=O` are 92 nM and 89.6%.
Consider `CC(=O)N[C@H](CCCN)C(=O)N[C@H]1CC(=O)NCCCC[C@@H](C(N)=O)NC(=O)[C@H](CCCNC(=N)N)NC(=O)[C@H](Cc2c[nH]c3ccccc23)NC(=O)[C@H](CCCNC(=N)N)NC(=O)[C@@H](Cc2ccc3ccccc3c2)NC(=O)[C@@H]2CCCN2C1=O`, for which, in experiment [1], the IC50 came out at 3060 nM. Further, the inhibition in experiment [2] was 73.7%.
As for `CCCCCC(=O)N[C@H]1C[C@H]2C(=O)N[C@H](Cc3ccc4ccccc4c3)C(=O)N[C@@H](CCCNC(=N)N)C(=O)N[C@@H](Cc3c[nH]c4ccccc34)C(=O)NCC(=O)N[C@H](C(N)=O)CCCCNC(=O)C[C@H](NC(=O)[C@H](CCCC)NC(C)=O)C(=O)N2C1`, the IC50 in experiment [1] turned out to be 10.1 nM.
As to `CCCC[C@H](NC(C)=O)C(=O)N[C@H]1CC(=O)NCCCC[C@@H](C(N)=O)NC(=O)CNC(=O)[C@H](Cc2c[nH]c3ccccc23)NC(=O)[C@H](CCCNC(=N)N)NC(=O)[C@@H](Cc2ccc3ccccc3c2)NC(=O)[C@@H]2C[C@H](n3cc(C4CCCCC4)nn3)CN2C1=O`, the concentration for half-maximal inhibition (IC50) on Melanocortin receptor 3 stood at 56.8 nM; in experiment [1], 77.4 nM. The inhibition in experiment [2] was determined as 89.5%.
With `CCCC[C@H](NC(C)=O)C(=O)N[C@H]1CC(=O)NCCCC[C@@H](C(N)=O)NC(=O)CNC(=O)[C@H](Cc2c[nH]c3ccccc23)NC(=O)[C@H](CCCNC(=N)N)NC(=O)[C@@H](Cc2ccc3ccccc3c2)NC(=O)[C@@H]2C[C@@H](n3cc(C(C)(C)N)nn3)CN2C1=O`, the IC50 on Melanocortin receptor 3 (hek293) was determined as 72.4 nM; at Melanocortin receptor 4 it was 4.34 nM; in experiment [1] (hek293), 1.53 nM.

What is called IC50 is the midpoint of a concentration-inhibition curve. What is called inhibition is the drop in the measured response relative to a control, in per cent.
